target: T1, human cGAS (residues 161-522) (Homo sapiens, UniProt Q8N884); test: cGAS Activity Assay—Malachite Green; format: biochemical; conditions: recombinant purified human cGAS 25 nM; 80 μM ATP, 80 μM GTP, 100 nM ISD; 4 hour at RT; phosphate detection by Malachite Green
T1 construct: human cGAS (residues 161-522); made in house
Outline: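 Human cGAS (161-522, 25 nM) in 20 mM TRIS pH 7.5, 5 mM MgCl2, 0.01% BSA with 80 μM ATP, 80 μM GTP and 100 nM ISD DNA, 4 h at RT. Pyrophosphate converted by PPase, phosphate read with Malachite Green at 620 nm; IC50 from 4-parameter fit of 16-point series.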

T1 sequence (Q8N884 161-522): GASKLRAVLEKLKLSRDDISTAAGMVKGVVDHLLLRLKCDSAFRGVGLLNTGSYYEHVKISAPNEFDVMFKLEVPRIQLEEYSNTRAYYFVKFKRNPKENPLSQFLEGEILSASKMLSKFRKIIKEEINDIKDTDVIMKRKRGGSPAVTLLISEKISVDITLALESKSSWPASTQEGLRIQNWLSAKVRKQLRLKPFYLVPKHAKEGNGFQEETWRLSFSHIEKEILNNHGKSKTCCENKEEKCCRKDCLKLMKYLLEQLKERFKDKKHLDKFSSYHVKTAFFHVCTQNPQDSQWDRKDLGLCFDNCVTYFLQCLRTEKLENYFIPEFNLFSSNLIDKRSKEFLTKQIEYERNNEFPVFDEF

IC50 [µM] | SMILES
1.5 | Cc1oncc1/C(O)=C(\C#N)C(=O)Nc1cccc(C(F)(F)F)c1 [Example 5, (Z)-2-cyano-3-hydroxy-3-(5-methylisoxazol-4-yl)-N-[3-(trifluoromethyl)phenyl] prop-2-enamide]
7.24 | Cc1oncc1/C(O)=C(\C#N)C(=O)Nc1ccccc1C(F)(F)F [Example 9, (Z)-2-cyano-3-hydroxy-3-(5-methylisoxazol-4-yl)-N-(2-(trifluoromethyl)phenyl) acrylamide]
0.17 | COCCN(C)S(=O)(=O)c1ccc(NC(=O)/C(C#N)=C(\O)c2cnoc2C)cc1 [Example 119, (Z)-2-Cyano-3-hydroxy-N-(4-(N-(2-methoxyethyl)-N-methylsulfamoyl)phenyl)-3-(5-methylisoxazol-4-yl)acrylamide]
1.74 | Cc1oncc1/C(O)=C(\C#N)C(=O)Nc1cccc(Oc2ccccc2)c1 [Example 52, (Z)-2-cyano-3-hydroxy-3-(5-methylisoxazol-4-yl)-N-(3-phenoxyphenyl)acrylamide]
1.29 | Cc1oncc1/C(O)=C(\C#N)C(=O)Nc1ccc(OC2COC2)cc1 [Example 41, (Z)-2-cyano-3-hydroxy-3-(5-methylisoxazol-4-yl)-N-[4-(oxetan-3-yloxy)phenyl]prop-2-enamide]
0.07 | COCCNS(=O)(=O)c1ccc(NC(=O)/C(C#N)=C(\O)c2cnoc2C)cc1 [Example 29, (Z)-2-cyano-3-hydroxy-N-(4-(N-(2-methoxyethyl)sulfamoyl)phenyl)-3-(5-methylisoxazol-4-yl)acrylamide]
0.25 | Cc1oncc1/C(O)=C(\C#N)C(=O)Nc1ncc(C(F)(F)F)cc1F [Example 92]
0.61 | COc1ccc(-c2cnc(NC(=O)/C(C#N)=C(\O)c3cnoc3C)nc2)cc1 [Example 80, (Z)-2-cyano-3-hydroxy-N-(5-(4-methoxyphenyl)pyrimidin-2-yl)-3-(5-methylisoxazol-4-yl)acrylamide]
7.42 | Cc1cc(NC(=O)/C(C#N)=C(\O)c2cnoc2C)ccc1Oc1ccc(C(F)(F)F)cc1 [Example 19, (Z)-2-cyano-3-hydroxy-N-(3-methyl-4-(4-(trifluoromethyl)phenoxy)phenyl)-3-(5-methylisoxazol-4-yl)acrylamide]
0.29 | Cc1oncc1/C(O)=C(\C#N)C(=O)Nc1ccc(S(=O)(=O)Nc2ccc(C#N)cc2)cc1 [Example 57, (Z)-2-cyano-N-(4-(N-(4-cyanophenyl)sulfamoyl)phenyl)-3-hydroxy-3-(5-methylisoxazol-4-yl)acrylamide]
0.53 | COC(=O)Cc1ccc(NC(=O)/C(C#N)=C(\O)c2cnoc2C)cc1 [Example 32, methyl 2-[4-[[(Z)-2-cyano-3-hydroxy-3-(5-methylisoxazol-4-yl)prop-2-enoyl]amino]phenyl] acetate]
0.21 | Cc1oncc1/C(O)=C(\C#N)C(=O)Nc1ncc(Sc2ccccc2)cn1 [Example 97, (Z)-2-cyano-3-hydroxy-3-(5-methylisoxazol-4-yl)-N-(5-phenylsulfanylpyrimidin-2-yl)prop-2-enamide]
0.06 | Cc1oncc1/C(O)=C(\C#N)C(=O)Nc1ncc(Br)cn1 [Example 107, (Z)-N-(5-bromopyrimidin-2-yl)-2-cyano-3-hydroxy-3-(5-methylisoxazol-4-yl)acrylamide]
1.99 | Cc1oncc1/C(O)=C(\C#N)C(=O)Nc1cccc(-c2ccccc2)c1 [Example 51, (Z)-2-cyano-3-hydroxy-3-(5-methylisoxazol-4-yl)-N-(3-phenylphenyl) prop-2-enamide]
4.46 | COc1cc(NC(=O)/C(C#N)=C(\O)c2cnoc2C)ccc1C(F)(F)F [Example 76, (Z)-2-cyano-3-hydroxy-N-(3-methoxy-4-(trifluoromethyl)phenyl)-3-(5-methylisoxazol-4-yl)acrylamide]
0.18 | Cc1oncc1/C(O)=C(\C#N)C(=O)Nc1ccc(S(C)(=O)=O)cc1 [Example 115, (Z)-2-cyano-3-hydroxy-3-(5-methylisoxazol-4-yl)-N-(4-methylsulfonylphenyl) prop-2-enamide]
2.6 | Cc1oncc1/C(O)=C(\C#N)C(=O)Nc1ccc(Cl)c(Cl)c1 [Example 12, (Z)-2-cyano-N-(3,4-dichlorophenyl)-3-hydroxy-3-(5-methylisoxazol-4-yl)acrylamide]

IC50 [µM] | SMILES
0.69 | Cc1cc(C#N)ccc1NC(=O)/C(C#N)=C(\O)c1cnoc1C [Example 22, (Z)-2-cyano-N-(4-cyano-2-methylphenyl)-3-hydroxy-3-(5-methylisoxazol-4-yl)acrylamide]
0.17 | Cc1oncc1/C(O)=C(\C#N)C(=O)Nc1ccc(S(=O)(=O)N(C)C)cc1 [Example 1, (Z)-2-cyano-N-(4-(N,N-dimethylsulfamoyl)phenyl)-3-hydroxy-3-(5-methylisoxazol-4-yl)acrylamide]
0.19 | Cc1oncc1/C(O)=C(\C#N)C(=O)Nc1ncc(C(=O)N(C)Cc2ccccc2)c(-c2ccccc2)n1 [Example 132, (Z)—N-Benzyl-2-(2-cyano-3-hydroxy-3-(5-methylisoxazol-4-yl)acrylamido)-N-methyl-4-phenylpyrimidine-5-carboxamide]
2 | Cc1oncc1/C(O)=C(\C#N)C(=O)Nc1cccc(C(=O)Nc2ccccc2)c1 [Example 69, (Z)-3-(2-cyano-3-hydroxy-3-(5-methylisoxazol-4-yl)acrylamido)-N-phenylbenzamide]
3.56 | Cc1oncc1/C(O)=C(\C#N)C(=O)Nc1ccc(Cl)c(C(F)(F)F)c1 [Example 15, (Z)-N-(4-chloro-3-(trifluoromethyl)phenyl)-2-cyano-3-hydroxy-3-(5-methylisoxazol-4-yl)acrylamide]
1.22 | COc1ccc(CCc2cnc(NC(=O)/C(C#N)=C(\O)c3cnoc3C)nc2C(F)(F)F)cn1 [Example 130, (Z)-2-cyano-3-hydroxy-N-(5-(2-(6-methoxypyridin-3-yl)ethyl)-4-(trifluoromethyl)pyrimidin-2-yl)-3-(5-methylisoxazol-4-yl)acrylamide]
0.22 | Cc1oncc1/C(O)=C(\C#N)C(=O)Nc1ccc(S(=O)(=O)Nc2ccccc2)cc1 [Example 54, (Z)-2-cyano-3-hydroxy-3-(5-methylisoxazol-4-yl)-N-(4-(N-phenylsulfamoyl)phenyl) acrylamide]
0.15 | Cc1oncc1/C(O)=C(\C#N)C(=O)Nc1ccc(S(=O)(=O)N2CCCC2)cc1 [Example 27, (Z)-2-cyano-3-hydroxy-3-(5-methylisoxazol-4-yl)-N-(4-(pyrrolidin-1-ylsulfonyl)phenyl) acrylamide]
0.67 | CSc1ccc(NC(=O)/C(C#N)=C(\O)c2cnoc2C)cc1 [Example 14, (Z)-2-cyano-3-hydroxy-3-(5-methylisoxazol-4-yl)-N-(4-(methylthio)phenyl) acrylamide]
0.09 | Cc1oncc1/C(O)=C(\C#N)C(=O)Nc1ncc(C(=O)N(C)c2ccccc2)cn1 [Example 99, 2-[[(Z)-2-cyano-3-hydroxy-3-(5-methylisoxazol-4-yl)prop-2-enoyl]amino]-N-methyl-N-phenyl-pyrimidine-5-carboxamide]
0.14 | Cc1oncc1/C(O)=C(\C#N)C(=O)Nc1ccc(S(=O)(=O)NC(C)(C)C)cn1 [Example 93, (Z)-N-(5-(N-(tert-butyl)sulfamoyl)pyridin-2-yl)-2-cyano-3-hydroxy-3-(5-methylisoxazol-4-yl)acrylamide]
0.13 | Cc1oncc1/C(O)=C(\C#N)C(=O)Nc1ccc([S+]([O-])c2ccccc2)cn1 (stereo not drawn) [Example 90, (Z)-2-cyano-3-hydroxy-3-(5-methylisoxazol-4-yl)-N-(5-(phenylsulfinyl)pyridin-2-yl)acrylamide]
0.08 | COCCOc1cnc(NC(=O)/C(C#N)=C(\O)c2cnoc2C)nc1 [Example 89, (Z)-2-cyano-3-hydroxy-N-(5-(2-methoxyethoxy)pyrimidin-2-yl)-3-(5-methylisoxazol-4-yl)acrylamide]
1.71 | Cc1oncc1/C(O)=C(\C#N)C(=O)Nc1ncc(C(=O)N(C)c2ccccc2)c(CCc2ccccc2)n1 [Example 134, (Z)-2-(2-cyano-3-hydroxy-3-(5-methylisoxazol-4-yl)acrylamido)-N-methyl-4-phenethyl-N-phenylpyrimidine-5-carboxamide]
1.56 | Cc1oncc1/C(O)=C(\C#N)C(=O)Nc1ccc(Oc2ccccc2)cc1 [Example 62, (Z)-2-cyano-3-hydroxy-3-(5-methylisoxazol-4-yl)-N-(4-phenoxyphenyl)acrylamide]
0.31 | Cc1oncc1/C(O)=C(\C#N)C(=O)Nc1cccc(C#N)c1 [Example 33, (Z)-2-cyano-N-(3-cyanophenyl)-3-hydroxy-3-(5-methylisoxazol-4-yl)prop-2-enamide]
